The inhibition is how much of the control response was suppressed.

Data on 8 molecules can be found in patent US5530126A, “Process for the preparation of substituted 6-(pyrazol-3yl)-1,4-benzoxazin-3-ones” (Monsanto Company, priority 1994, dated 1996).

Common to all, as to format: in vivo
Test [1] deals with Velvetleaf. Kind of test: Post-emergence herbicide test. To be noted: Abutilon theophrasti, 11.21 kg/ha, read-out: % plant inhibition (Vele). The essentials: (§1)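 Candidate compound was suspended or dissolved with about 0.4% by volume emulsifier and sprayed onto emerged plants two to three weeks old. Application volume equalled 1870 L/Ha at 170.3 kPa. Plants then returned to greenhouse; percent inhibition compared with control recorded at 10–14 days.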

For test [2], the system named is Indian Mustard. The test is described as follows: Post-emergence herbicide test. To be noted: Brassica juncea, 11.21 kg/ha, read-out: % plant inhibition (Inmu). The essentials:
as §1

Test [3] relates to Barnyardgrass. The test is described as follows: Post-emergence herbicide test. To be noted: Echinochloa crus-galli, 11.21 kg/ha, read-out: % plant inhibition (Bygr). The procedure, abridged: as §1
The subject of test [4] is Wild buckwheat. Kind of test: Post-emergence herbicide test. To be noted: Fallopia convolvulus, 11.21 kg/ha, read-out: % plant inhibition (Wibw). The essentials: as §1
Test [5] concerns Morningglory. The test is described as follows: Post-emergence herbicide test. To be noted: Ipomoea, 11.21 kg/ha, read-out: % plant inhibition (Mogl). The procedure, abridged:
as §1

The test system of test [6] is Yellow nutsedge. The test is described as follows: Post-emergence herbicide test. To be noted: Cyperus, 11.21 kg/ha, read-out: % plant inhibition (Yens). The essentials: as §1
Test [7] has as its system Downy Brome. Kind of test: Post-emergence herbicide test. To be noted: Bromus tectorum, 11.21 kg/ha, read-out: % plant inhibition (Dobr). The essentials:
as §1

Test [8] concerns Cocklebur. Kind of test: Post-emergence herbicide test. To be noted: Xanthium strumarium, 11.21 kg/ha, read-out: % plant inhibition (Cobu). The procedure, abridged:
as §1

Test [9] concerns Annual bluegrass. The test is described as follows: Post-emergence herbicide test. To be noted: 11.21 kg/ha, read-out: % plant inhibition (Anbg). The essentials: as §1
For test [10], the system named is Seedling johnsongrass. The test is described as follows: Post-emergence herbicide test. To be noted: Sorghum halepense, 11.21 kg/ha, read-out: % plant inhibition (Sejg). The essentials: as §1
Test [11] has as its system Velvetleaf. Kind of test: Pre-emergence herbicide test. To be noted: Abutilon theophrasti, 11.21 kg/ha, read-out: % plant inhibition (Vele). The essentials:
(§2)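 Greenhouse pans: topsoil compacted to within 0.95-1.27 cm of top, seeds laid on surface, active ingredient (organic solvent or water carrier) applied, untreated topsoil cover added. Watered from below; % inhibition at ~11 d.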

Test [12] concerns Indian Mustard. Kind of test: Pre-emergence herbicide test. To be noted: Brassica juncea, 11.21 kg/ha, read-out: % plant inhibition (Inmu). The procedure, abridged: as §2
The test system of test [13] is Barnyardgrass. The test is described as follows: Pre-emergence herbicide test. To be noted: Echinochloa crus-galli, 11.21 kg/ha, read-out: % plant inhibition (Bygr). The procedure, abridged: as §2
Test [14] deals with Wild buckwheat. Kind of test: Pre-emergence herbicide test. To be noted: Fallopia convolvulus, 11.21 kg/ha, read-out: % plant inhibition (Wibw). The essentials: as §2
The subject of test [15] is Morningglory. The test is described as follows: Pre-emergence herbicide test. To be noted: Ipomoea, 11.21 kg/ha, read-out: % plant inhibition (Mogl). The essentials: as §2
The subject of test [16] is Yellow nutsedge. Kind of test: Pre-emergence herbicide test. To be noted: Cyperus, 11.21 kg/ha, read-out: % plant inhibition (Yens). The essentials: as §2
Test [17] deals with Downy Brome. Kind of test: Pre-emergence herbicide test. To be noted: Bromus tectorum, 11.21 kg/ha, read-out: % plant inhibition (Dobr). The procedure, abridged: as §2
Test [18] deals with Cocklebur. The test is described as follows: Pre-emergence herbicide test. To be noted: Xanthium strumarium, 11.21 kg/ha, read-out: % plant inhibition (Cobu). The essentials: as §2
Test [19] deals with Annual bluegrass. Kind of test: Pre-emergence herbicide test. To be noted: 11.21 kg/ha, read-out: % plant inhibition (Anbg). The essentials:
as §2

Test [20] concerns Seedling johnsongrass. Kind of test: Pre-emergence herbicide test. To be noted: Sorghum halepense, 11.21 kg/ha, read-out: % plant inhibition (Sejg). The essentials: as §2

Structures are written as SMILES.

With `Cn1nc(C(F)(F)F)c(Cl)c1-c1cc([N+](=O)[O-])c(F)cc1F` [Compound 77], the inhibition at 11210 g/ha is 30% with Velvetleaf [1]; 60% in the test with Indian Mustard [2]; 20% with Barnyardgrass [3]; 60% in the test on Wild buckwheat [4]; 10% in the test with Morningglory [5]; 0% with Yellow nutsedge [6]. For the same molecule, the inhibition at 11210 g/ha in the test with Downy Brome [7] was 0%; in the test with Cocklebur [8] it was 20%; in the test on Annual bluegrass [9], 20%; with Seedling johnsongrass [10] it was 20%; with Velvetleaf [11] it was 30%; with Indian Mustard [12] it was 30%. The inhibition at 11210 g/ha turned out to be 30% in the test on Barnyardgrass [13]; 20% in the test on Wild buckwheat [14]; 0% in the test with Morningglory [15]; 0% in the test on Yellow nutsedge [16]; 10% in the test with Downy Brome [17]; 0% in the test on Cocklebur [18]. Besides, the inhibition at 11210 g/ha in the test on Annual bluegrass [19] amounted to 80%; in the test with Seedling johnsongrass [20], 40%.

With `COc1cc(F)c(-c2c(Cl)c(C(F)(F)F)nn2C)cc1[N+](=O)[O-]` [Compound 78], the inhibition at 11210 g/ha is 40% in the test on Velvetleaf [1]; 40% in the test on Indian Mustard [2]; 0% with Barnyardgrass [3]; 30% in the test with Wild buckwheat [4]; 10% with Morningglory [5]; 0% with Yellow nutsedge [6]. For the same molecule, the inhibition at 11210 g/ha was 10% in the test on Downy Brome [7]; 10% in the test on Cocklebur [8]; 0% in the test on Annual bluegrass [9]; 10% with Seedling johnsongrass [10]; 0% in the test with Velvetleaf [11]; 0% in the test with Indian Mustard [12]. The inhibition at 11210 g/ha with Barnyardgrass [13], in the test on Wild buckwheat [14], in the test on Morningglory [15], in the test on Yellow nutsedge [16], in the test with Downy Brome [17] and in the test on Cocklebur [18] was 0% in each case. Besides, the inhibition at 11210 g/ha with Annual bluegrass [19] and in the test with Seedling johnsongrass [20] was 0% each time.

As for `Cn1nc(C(F)(F)F)c(Cl)c1-c1ccc(Cl)cc1F` [Compound 79], the inhibition at 11210 g/ha in the test with Velvetleaf [1] came to 100%; with Indian Mustard [2] it was 90%; in the test on Barnyardgrass [3], 20%; with Wild buckwheat [4] it was 100%; with Morningglory [5] it was 60%; with Yellow nutsedge [6] it was 10%. Also, the inhibition at 11210 g/ha with Downy Brome [7] is 20%; in the test on Cocklebur [8], 20%; with Annual bluegrass [9], 60%; in the test with Seedling johnsongrass [10], 30%; in the test on Velvetleaf [11], 100%; with Indian Mustard [12], 100%. Further, the inhibition at 11210 g/ha in the test on Barnyardgrass [13] came out at 80%; in the test with Wild buckwheat [14], 100%; in the test on Morningglory [15], 100%; in the test on Yellow nutsedge [16] it was 20%; in the test with Downy Brome [17], 80%; in the test with Cocklebur [18], 30%. Moreover, the inhibition at 11210 g/ha with Annual bluegrass [19] was found to be 90%; with Seedling johnsongrass [20], 80%.

`Cn1nc(-c2ccc([N+](=O)[O-])cc2)c(Cl)c1C(F)(F)F` [Compound 81]: the inhibition at 11210 g/ha with Velvetleaf [1] worked out at 80%; in the test with Indian Mustard [2], 10%; with Barnyardgrass [3] it was 70%; in the test on Wild buckwheat [4], 90%; in the test on Morningglory [5], 60%; with Yellow nutsedge [6] it was 50%. Further, the inhibition at 11210 g/ha in the test with Downy Brome [7] came out at 10%; in the test with Cocklebur [8] it was 40%; in the test on Annual bluegrass [9], 0%; in the test on Seedling johnsongrass [10] it was 70%; in the test on Velvetleaf [11], 90%; in the test on Indian Mustard [12] it was 20%. Moreover, the inhibition at 11210 g/ha in the test on Barnyardgrass [13] amounted to 60%; with Wild buckwheat [14] it was 100%; in the test on Morningglory [15] it was 30%; in the test on Yellow nutsedge [16] it was 0%; with Downy Brome [17], 80%; in the test on Cocklebur [18] it was 20%. For the same molecule, the inhibition at 11210 g/ha worked out at 60% in the test with Annual bluegrass [19] and 90% in the test on Seedling johnsongrass [20].

On to `Cn1nc(-c2ccc(Cl)cc2)c(Cl)c1C(F)(F)F` [Compound 82], for which the inhibition at 11210 g/ha with Velvetleaf [1] was determined as 20%; with Indian Mustard [2], 30%; in the test on Barnyardgrass [3], 30%; in the test on Wild buckwheat [4], 60%; with Morningglory [5], 90%; in the test with Yellow nutsedge [6], 10%. The inhibition at 11210 g/ha with Downy Brome [7] worked out at 20%; in the test on Cocklebur [8], 0%; in the test on Annual bluegrass [9], 0%; with Seedling johnsongrass [10], 40%; in the test with Velvetleaf [11] it was 100%; with Indian Mustard [12], 80%. Besides, the inhibition at 11210 g/ha in the test with Barnyardgrass [13] came to 100%; in the test with Wild buckwheat [14] it was 100%; with Morningglory [15], 100%; in the test on Yellow nutsedge [16] it was 30%; in the test with Downy Brome [17] it was 100%; with Cocklebur [18], 40%. The inhibition at 11210 g/ha came out at 60% with Annual bluegrass [19] and 100% with Seedling johnsongrass [20].

For `Cn1nc(-c2ccc(Cl)cc2)c(Cl)c1C(F)(F)Cl` [Compound 83], the inhibition at 11210 g/ha was determined as 100% in the test on Velvetleaf [1]; 90% with Indian Mustard [2]; 40% in the test on Barnyardgrass [3]; 100% in the test with Wild buckwheat [4]; 80% in the test with Morningglory [5]; 20% with Yellow nutsedge [6]. Also, the inhibition at 11210 g/ha in the test on Downy Brome [7] worked out at 40%; in the test on Cocklebur [8], 70%; with Annual bluegrass [9] it was 0%; in the test with Seedling johnsongrass [10] it was 60%; in the test on Velvetleaf [11], 90%; in the test on Indian Mustard [12], 60%. Besides, the inhibition at 11210 g/ha worked out at 60% in the test with Barnyardgrass [13]; 90% in the test with Wild buckwheat [14]; 30% in the test with Morningglory [15]; 20% with Yellow nutsedge [16]; 90% in the test with Downy Brome [17]; 40% in the test on Cocklebur [18]. The inhibition at 11210 g/ha was determined as 40% in the test on Annual bluegrass [19] and 100% with Seedling johnsongrass [20].

Take `Cn1nc(-c2ccc(Cl)cc2Cl)c(Cl)c1C(F)(F)F` [Compound 85]: the inhibition at 11210 g/ha in the test with Velvetleaf [1] came to 100%; in the test on Indian Mustard [2], 20%; with Barnyardgrass [3] it was 70%; with Wild buckwheat [4], 100%; with Morningglory [5], 100%; in the test on Yellow nutsedge [6], 20%. The inhibition at 11210 g/ha in the test on Downy Brome [7] is 50%; in the test with Cocklebur [8] it was 40%; with Annual bluegrass [9], 60%; in the test on Seedling johnsongrass [10], 90%; with Velvetleaf [11], 100%; with Indian Mustard [12], 100%. In addition, the inhibition at 11210 g/ha was 100% with Barnyardgrass [13]; 100% with Wild buckwheat [14]; 100% with Morningglory [15]; 0% in the test on Yellow nutsedge [16]; 100% in the test with Downy Brome [17]; 40% in the test with Cocklebur [18]. Also, the inhibition at 11210 g/ha in the test on Annual bluegrass [19] and with Seedling johnsongrass [20] was 100% in each case.

In the case of `Cn1nc(-c2cc([N+](=O)[O-])c(Cl)cc2Cl)c(Cl)c1C(F)(F)F` [Compound 86], the inhibition at 11210 g/ha in the test on Velvetleaf [1] came to 100%; with Indian Mustard [2], 60%; in the test on Barnyardgrass [3], 80%; in the test with Wild buckwheat [4] it was 100%; with Morningglory [5], 100%; with Yellow nutsedge [6], 10%. The inhibition at 11210 g/ha in the test on Downy Brome [7] was found to be 0%; in the test on Cocklebur [8] it was 70%; in the test on Annual bluegrass [9], 30%; in the test on Seedling johnsongrass [10], 80%; with Velvetleaf [11], 90%; with Indian Mustard [12] it was 30%. Also, the inhibition at 11210 g/ha in the test on Barnyardgrass [13] worked out at 0%; in the test with Wild buckwheat [14], 100%; with Morningglory [15], 20%; in the test with Yellow nutsedge [16], 0%; in the test on Downy Brome [17], 0%; with Cocklebur [18] it was 10%. In addition, the inhibition at 11210 g/ha in the test on Annual bluegrass [19] and in the test on Seedling johnsongrass [20] was 0% in each case.
